In assay [1] the test system is KRAS G12D-dependent Ba/F3 cells. The experiment in a line: Ba/F3 proliferation assay, KRAS G12D. The class given is cell-based. Particulars: Mus musculus, BaF3, 72 h, AlamarBlue. In short, it runs like this:
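Ba/F3 cells retrovirally transduced with KRAS G12 mutants, puromycin-selected and grown without IL-3, so proliferation depends on the mutant KRAS. Compounds tested in technical duplicates; viability read by AlamarBlue fluorescence, with curve fitting for potency.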
(Resazurin is reduced to fluorescent resorufin, in cell work by metabolically active cells.)

In another assay the test system is AsPC-1 cells. As to the kind of experiment: AsPC-1 CTG proliferation assay (120 h) (pancreatic cancer, G12D). The class given is cell-based. Particulars: Homo sapiens, ASPC1. The procedure, abridged: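 AsPC-1 cells (KRAS G12D), 2000/well in RPMI with 10% FCS, seeded overnight, then treated with compound for 120 h at 37 °C. Viability by CellTiter-Glo luminescence as percent of DMSO control. IC50 from a four-parameter non-linear fit.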

The target of a further assay is KRAS (G12C)::SOS1 (Homo sapiens (Human), UniProt P01116, C118S/C51S/C80L/G12C). The experiment in a line: KRAS::SOS1 AlphaScreen binding assay, KRAS G12C. The procedure, abridged:
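KRAS 1-169 (biotinylated avi-tag) with GST-SOS1 564-1049 and 10 µM GDP in PBS/0.1% BSA/0.05% Tween 20: WT and G13D 10 nM each with 10 nM SOS1; G12D 10 nM and G12C 7.5 nM with 5 nM SOS1. After 30 min, glutathione acceptor/streptavidin donor beads were added for 60 min at RT in the dark, then AlphaScreen read; 4-parameter IC50.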
Background: Alpha assays give light when donor and acceptor beads are brought close together.

Usually IC50 stands for the point on the concentration scale where inhibition reaches its midpoint. Low values mean greater potency, high ones weaker potency.

Sequence of KRAS (G12C)::SOS1 (P01116 other isoform, or with tags, fused parts or gaps G12C/C51S/C80L/C118S): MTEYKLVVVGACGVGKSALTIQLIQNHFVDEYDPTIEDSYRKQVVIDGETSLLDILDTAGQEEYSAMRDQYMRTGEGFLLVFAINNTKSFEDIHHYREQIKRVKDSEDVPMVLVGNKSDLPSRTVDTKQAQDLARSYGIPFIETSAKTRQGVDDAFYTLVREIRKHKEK

On to `C[C@H](Oc1cc(N2CCNC3(COC3)C2)nc(-c2noc3c2CCC[C@@]32CCCc3sc(N)c(C#N)c32)n1)[C@@H]1C[C@@H](F)CN1C` [II-150], for which the IC50 in assay [1] stood at 0.003 µM; in the assay on AsPC-1 cells, 0.027 µM; at KRAS (G12C)::SOS1, 0.002 µM.

Consider `C[C@H](Oc1cc(N2CCN(C)C3(COC3)C2)nc(-c2noc3c2CCC[C@@]32CCCc3sc(N)c(C#N)c32)n1)[C@@H]1C[C@@H](F)CN1C` [II-148], for which the IC50 stood at 0.014 µM in assay [1], 0.376 µM with AsPC-1 cells and 0.002 µM on KRAS (G12C)::SOS1.

`C[C@H](Oc1cc(-n2cc3ccn(C4CCOCC4)c(=O)c3n2)nc(-c2noc3c2CCC[C@@]32CCCc3sc(N)c(C#N)c32)n1)[C@@H]1CCCN1C` [II-206]: the IC50 in assay [1] stood at 0.063 µM; with AsPC-1 cells it was 0.194 µM; at KRAS (G12C)::SOS1 it was 0.002 µM.

Consider `CNC1CCN(c2cc(O[C@@H](C)[C@@H]3CCCN3C)nc(-c3noc4c3CCC[C@@]43CCCc4sc(N)c(C#N)c43)n2)CC1` [II-214], for which the IC50 in assay [1] was determined as 1.71 µM; in the assay on AsPC-1 cells it was 3.52 µM; on KRAS (G12C)::SOS1, 0.009 µM.

With `C[C@H](Oc1cc(-n2ccc(-c3cn([C@@H]4CCOC4)nn3)n2)nc(-c2noc3c2CCC[C@@]32CCCc3sc(N)c(C#N)c32)n1)[C@@H]1CCCN1C` [II-211], the IC50 in assay [1] was 0.028 µM; in the assay on AsPC-1 cells, 0.297 µM; on KRAS (G12C)::SOS1, 0.002 µM.

Turning to `C[C@H](Oc1cc(-n2ccc(C(=O)N[C@@H]3CCOC3)n2)nc(-c2noc3c2CCC[C@@]32CCCc3sc(N)c(C#N)c32)n1)[C@@H]1CCCN1C` [II-192], the results for the concentration for half-maximal inhibition (IC50) (in assay [1]; in the assay with AsPC-1 cells; on KRAS (G12C)::SOS1) were 0.013 µM, 0.305 µM and 0.001 µM, respectively.

`C[C@H]1CNCCCN1c1cc(-c2ccn(C)n2)nc(-c2noc3c2CCC[C@@]32CCCc3sc(N)c(C#N)c32)n1` [II-140]: the IC50 in assay [1] worked out at 2.24 µM; with AsPC-1 cells, 21.6 µM; on KRAS (G12C)::SOS1, 0.005 µM.

For the compound `CO[C@H]1CCN(C)[C@@H]1[C@H](C)Oc1cc(-n2ccc(CC(=O)NC(C)C)n2)nc(-c2noc3c2CCC[C@@]32CCCc3sc(N)c(C#N)c32)n1` [II-183], the IC50 in assay [1] was 0.012 µM; in the assay on AsPC-1 cells, 0.162 µM; on KRAS (G12C)::SOS1 it was 0.002 µM.

With `C[C@H](Oc1cc(N2C[C@H](C)N(C)[C@@H](C)C2)nc(-c2noc3c2CCC[C@@]32CCCc3sc(N)c(C#N)c32)n1)[C@@H]1CCCN1C` [II-173], the IC50 in assay [1] amounted to 0.051 µM; with AsPC-1 cells, 1.21 µM; at KRAS (G12C)::SOS1, 0.005 µM.

Consider `CO[C@@H]1C[C@@H]([C@H](C)Oc2cc(-c3cnn(C)n3)nc(-c3onc4c3CCC[C@@]43CCCc4sc(N)c(C#N)c43)n2)N(C)C1` [I-17], for which the IC50 came out at 0.077 µM in assay [1], 9.85 µM in the assay on AsPC-1 cells and 0.004 µM on KRAS (G12C)::SOS1.

For the compound `CO[C@H]1CCN(C)[C@@H]1[C@H](C)Oc1cc(N2CCN(C)C3(CC3)C2)nc(-c2noc3c2CCC[C@@]32CCCc3sc(N)c(C#N)c32)n1` [II-186], the IC50 in assay [1] turned out to be 0.012 µM; in the assay with AsPC-1 cells, 0.038 µM; at KRAS (G12C)::SOS1, 0.003 µM.

(Values after patent US20240174690A1, “ANNULATED 2-AMINO-3-CYANO THIOPHENES AND DERIVATIVES FOR THE TREATMENT OF CANCER” (BOEHRINGER INGELHEIM INTERNATIONAL GMBH, priority 2021, published 2024).)
